This experiment has as its target T1, rat brain farnesyl protein transferase (PFT) (Rattus norvegicus, UniProt Q02293+Q04631).
T1 construct: 40-fold purified rat brain farnesyl protein transferase; from tissue; host or cells: rat brain
The experiment in a line: PFT inhibitory activity assay (radiolabeled farnesyl pyrophosphate, biotinyl peptide, streptavidin beads). The settings on record: 40-fold purified rat brain enzyme; 0.12 μM [3H]FPP, 0.1 μM biotinyl-Ahe-Tyr-Lys-Cys-Val-Ile-Met; 37° C., 30 minutes; read-out: IC50 (μM) against PFT. The experiment is classed as biochemical. How it is done: The PFT inhibitory activity of compounds of Formula I was assayed in 30 mM potassium phosphate buffer, pH 7.4, containing 7 mM DTT, 1.2 mM MgCl2, 0.1 mM leupeptin, 0.1 mM pepstatin and 0.2 mM phenylmethylsulfonyl fluoride. Assays were performed in 96 well plates (Wallec) and employed solutions composed of varying concentrations of a compound of Formula I in 100% DMSO. Upon addition of both substrates, radiolabeled farnesyl pyrophosphate ([1-^3 H], specific activity 15--30 Ci/mmol, final concentration 0.12 μM) and (biotinyl)-Ahe-Tyr-Lys-Cys-Val-Ile-Met peptide (final concentration 0.1 μM), the enzyme reaction was started by addition of 40-fold purified rat brain farnesyl protein transferase. After incubation at 37° C. for 30 minutes, the reaction was terminated by diluting the reaction 2.5-fold with a stop buffer containing 1.5M magnesium acetate, 0.2M H3 PO4, 0.5% BSA, and strepavidin beads (Amersham) at a concentration of 1.3 mg/mL. After allowing the plate to settle for 30 minutes at room temperature, radioactivity was quantitated on a microBeta counter (model 1450, Wallec). Compounds of Formula I show IC50 values of 0.5 nM to 80 μM (see data table) in this assay and are thus valuable inhibitors of protein: farnesyl transferase enzyme which may be used in the medical treatment of tissue proliferative diseases, including cancer and restenosis.

Numbered stars: 1 amine (or outer) side, 2 acyl side, 3 side chain; on linkers, the order of the positions; unused ones are H or OH. Square brackets hold non-standard residues; d marks the D form. Peptide text beside a SMILES is read from it. * marks the point of attachment. Bip = N[C@@H](Cc1ccc(-c2ccccc2)cc1)C(=O)O; His(τ-Me) = Cn1cnc(C[C@H](N)C(=O)O)c1; 3Pal = N[C@@H](Cc1cccnc1)C(=O)O; NHPhenethyl = c1ccc(CCN*)cc1; Cbz = O=C(OCc1ccccc1)*; CO = O=C([*:1])[*:2]; NHBn = c1ccc(CN*)cc1; Bn = c1ccc(C*)cc1

The values below come from patent US5830868A, “Substituted DI- and tripeptide inhibitors of protein: farnesyl transferase” (Warner-Lambert Company, priority 1996, dated 1998).

By IC50 is commonly meant the concentration that inhibits the measured activity by half.

T1 sequence (Q02293 whole entry, one chain of several): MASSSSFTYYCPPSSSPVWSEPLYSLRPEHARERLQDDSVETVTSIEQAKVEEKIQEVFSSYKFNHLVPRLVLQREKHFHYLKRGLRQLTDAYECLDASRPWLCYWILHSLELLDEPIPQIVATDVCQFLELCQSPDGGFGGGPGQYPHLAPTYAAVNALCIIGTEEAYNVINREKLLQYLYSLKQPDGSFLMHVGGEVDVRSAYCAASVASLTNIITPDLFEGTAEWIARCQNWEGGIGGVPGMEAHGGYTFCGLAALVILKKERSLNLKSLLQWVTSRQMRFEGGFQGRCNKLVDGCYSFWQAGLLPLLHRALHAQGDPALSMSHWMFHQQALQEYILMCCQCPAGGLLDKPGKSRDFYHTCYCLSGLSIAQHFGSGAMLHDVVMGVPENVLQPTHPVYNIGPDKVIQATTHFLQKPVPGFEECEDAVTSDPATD

Regarding `C[C@@](Cc1ccc(OCc2ccccc2)cc1)(NC(=O)[C@@H](Cc1c[nH]cn1)NC(=O)OCc1ccccc1)C(=O)NCCOCc1ccccc1` [Example 22], the IC50 turned out to be 0.37 µM.

`O=C(N[C@@H](Cc1c[nH]cn1)C(=O)N[C@@H](Cc1ccc(OCc2ccccc2)cc1)C(=O)N[C@@H](COCc1ccccc1)C(=O)O)OCc1ccccc1` [Example 7, N-[N-[N-[(Phenylmethoxy)carbonyl]-L-histidyl]-O-(phenylmethyl)-L-tyrosyl]-O-(phenylmethyl)-L-serine] (Cbz-His-Tyr(Bn)-Ser(Bn)-OH): the IC50 was 0.26 µM. Turning to `O=C(N[C@@H](Cc1c[nH]cn1)C(=O)N[C@@H](Cc1ccc(OCc2ccccc2)cc1)C(=O)NCCc1ccccc1)OCc1ccccc1` [Example 23, N-(2-Phenylethyl)-N60-[-N-[(phenylmethoxy)carbonyl]-L-histidyl]-O-(phenylmethyl)-L-tyrosinamide] (Cbz-His-Tyr(Bn)-NHPhenethyl), the IC50 was 1.9 µM. Take “PhCH2 CH2 NHCO--D--His--Tyr(OBn)CONHCH2 CH2 [5 (27)]”: the IC50 is 30 µM. For `COc1ccccc1CCCNC(=O)C(Cc1ccc(OCc2ccccc2)cc1)NC(=O)C(Cc1c[nH]cn1)NC(=O)Cc1ccccc1` [5 (69), PhCH2 CO--D--His--Tyr(OBn)CONH(CH2)3 --(2-MeO--Ph)], the IC50 came out at 0.48 µM.

For the compound `O=C(Nc1cccc2ccccc12)N[C@H](Cc1c[nH]cn1)C(=O)N[C@@H](Cc1ccc(OCc2ccccc2)cc1)C(=O)NCc1ccccc1` [5 (60), 1-napthyl-NHCO--D--His--Tyr(OBn)CONHCH2 Ph], the IC50 was found to be 1.4 µM. Take `O=C(N[C@@H](Cc1c[nH]cn1)C(=O)N[C@@H](Cc1ccc(OCc2ccccc2)cc1)C(=O)NCCOCc1ccccc1)OCc1ccccc1` [Example 19, Nα -[-N-[(Phenylmethoxy)carbonyl]-L-histidyl]-O-(phenylmethyl)-N-[2-(phenylmethoxy)ethyl]-L-tyrosinamide]: the IC50 is 0.31 µM. The same measure for `COc1ccccc1CCCNC(=O)[C@H](Cc1ccc(OCc2ccccc2)cc1)NC(=O)[C@@H](Cc1c[nH]cn1)NS(=O)(=O)c1ccc(C)cc1` [5 (49), (4-MePh)SO2 --D--His--Tyr(OBn)--CONHCH2 CH2 CH2 --(2-MeO--Ph)]: 2.9 µM. The figure for `COC(=O)[C@H](COCc1ccccc1)NC(=O)[C@H](Cc1ccc(OCc2ccccc2)cc1)NC(=O)[C@H](Cc1cn(C)cn1)NC(=O)OCc1ccccc1` [Example 13, N-[N-[1-Methyl-N-[(phenylmethoxy)carbonyl]l-L-histidyl]-O-(phenylmethyl)-L-tyrosyl]-O-(phenylmethyl)-L-serine. methyl ester] (Cbz-[His(τ-Me)]-Tyr(Bn)-Ser(Bn)-OMe) is 0.083 µM; for `COC(=O)[C@H](COCc1ccccc1)NC(=O)[C@H](Cc1ccc(OCc2ccccc2)cc1)NC(=O)[C@H](Cc1c[nH]cn1)NC(=O)NCc1ccccc1` [Example 17, N-[O-(Phenylmethyl)-N[N-[[(Phenylmethyl)amino]-carbonyl]-L-histidyl]-L-tyrosyl]-O-(phenylmethyl)-serine, methyl ester] ({NHBn-CO}-His-Tyr(Bn)-Ser(Bn)-OMe) it is 0.039 µM; for `CCOc1ccc(NC(=O)NC(Cc2cnc[nH]2)C(=O)NC(Cc2ccc(OCc3ccccc3)cc2)C(=O)NCCCOc2ccccc2)cc1` (centres unmarked) [5 (63), (4-EtOPh)NHCO--His--Tyr(OBn)CONHCH2 CH2 CH2 OPh] it is 1 µM. In the case of `O=C(N[C@H](Cc1c[nH]cn1)C(=O)N[C@@H](Cc1ccc(OCc2ccccc2)cc1)C(=O)NCCCOc1ccccc1)OCc1ccccc1` [5 (23), BnOCO--D--His--Tyr(OBn)CONHCH2 CH2 CH2 OPh], the IC50 was 0.64 µM.

For `Cc1ccc(S(=O)(=O)N[C@@H](Cc2cnc[nH]2)C(=O)N[C@H](Cc2ccc(OCc3ccccc3)cc2)C(=O)N2CCN(Cc3ccccc3)CC2)cc1` (stereo in doubt) [Example 28, (S,R)-N-[1-(4-Benzyloxy-benzyl)-2-(4-benzyl-piperazin-1-yl)-2-oxo-ethyl]-3-(3H-imidazol-4-yl)-2-(toluene-4-sulfonylamino)-propionamide], the IC50 worked out at 11 µM. Regarding `COC(=O)[C@H](Cc1cccnc1)NC(=O)[C@H](Cc1ccc(OCc2ccccc2)cc1)NC(=O)[C@H](Cc1c[nH]cn1)NC(=O)OCc1ccccc1` [Example 24, N-[N-[N-[(Phenylmethoxy)carbonyl]-L-histidyl]-O-(phenylmethyl)-L-tyrosyl]-3-(3-pyridinyl)-L-alanine, methyl ester] (Cbz-His-Tyr(Bn)-[3Pal]-OMe), the IC50 amounted to 1 µM. The figure for `CC(C)NC(=O)NC(Cc1cnc[nH]1)C(=O)NC(Cc1ccc(OCc2ccccc2)cc1)C(=O)NCc1ccccc1` [5 (40), (CH3)2 CHNHCO--D--His--Tyr(OBn)CONHCH2 Ph] is 0.75 µM; for `CCOc1ccc(NC(=O)N[C@@H](Cc2cnc[nH]2)C(=O)N[C@H](Cc2ccc(OCc3ccccc3)cc2)C(=O)NCCCOc2ccccc2)cc1` (stereo in doubt) [Example 25, (S,R)-N-[2-(4-Benzyloxy-phenyl)-1-(3-phenoxy-propylcarbamoyl)-ethyl]-2-[3-(4-ethoxy-phenyl)-ureido]-3-(3H-imidazol-4-yl)-propionamide] it is 3.7 µM; for `CN(C(=O)OCc1ccccc1)[C@H](Cc1c[nH]cn1)C(=O)N[C@@H](Cc1ccc(OCc2ccccc2)cc1)C(=O)NCCOCc1ccccc1` [Example 21, Nα -[N-Methyl-N[(phenylmethoxy)carbonyl]-D-histidyl]-N-[2-(phenylmethoxy)ethyl]-O-(phenylmethyl)-L-tyrosinamide] it is 0.31 µM. `O=C(CCc1ccccc1)N[C@H](Cc1c[nH]cn1)C(=O)N[C@@H](Cc1ccc(OCc2ccccc2)cc1)C(=O)NCCOCc1ccccc1` [5 (36), PhCH2 CH2 CO--D--His--Tyr(OBn)CONHCH2 CH2 OBn]: the IC50 came out at 1.9 µM.

In the case of `O=C(Nc1ccccc1)NC(Cc1c[nH]cn1)C(=O)NC(Cc1ccc(OCc2ccccc2)cc1)C(=O)NCCCOc1ccccc1` [5 (3), PhNHCO--D--His--Tyr(OBn)--CONHCH2 CH2 CH2 OPh], the IC50 came out at 2.1 µM. The figure for `O=C(Nc1cccc2ccccc12)N[C@H](Cc1c[nH]cn1)C(=O)N[C@@H](Cc1ccc(OCc2ccccc2)cc1)C(=O)NCCCCc1ccccc1` [5 (59), 1-napthyl-NHCO--D--His--Tyr(OBn)CONHCH2 CH2 CH2 CH2 Ph] is 20 µM; for `O=C(NCc1ccccc1)N[C@@H](Cc1c[nH]cn1)C(=O)N[C@@H](Cc1ccc(OCc2ccccc2)cc1)C(=O)NCCCOc1ccccc1` [Example 4] it is 1 µM.

For `O=C(Nc1ccc(Oc2ccccc2)cc1)NC(Cc1c[nH]cn1)C(=O)NC(Cc1ccc(OCc2ccccc2)cc1)C(=O)NCCc1ccccc1` [5 (46), (4-PhOPh)NHCO--D--His--Tyr(OBn)--CONHCH2 CH2 Ph], the 50% inhibitory concentration (IC50) was 1 µM.

Turning to `COC(=O)[C@H](COCc1ccccc1)NC(=O)[C@H](Cc1ccc(OCc2ccccc2)cc1)NC(=O)[C@H](Cc1c[nH]cn1)NC(=O)OCc1ccccc1` [Example 6, N-[N-[N-[(Phenylmethoxy)carbonyl]-L-histidyl]-O-(phenylmethyl)-L-tyrosyl]-O-(phenylmethyl)-L-serine, methyl ester] (Cbz-His-Tyr(Bn)-Ser(Bn)-OMe), the IC50 came out at 0.42 µM. For the compound `O=C(CCc1ccccc1)NC(Cc1c[nH]cn1)C(=O)NC(Cc1ccc(OCc2ccccc2)cc1)C(=O)NCc1ccccc1` [5 (80), PhCH2 CH2 CO--D--His--Tyr(OBn)CONHCH2 Ph], the IC50 amounted to 1.6 µM. The same measure for `O=C(NC(Cc1cnc[nH]1)C(=O)NC(Cc1ccc(OCc2ccccc2)cc1)C(=O)NCCSCc1ccccc1)OCc1ccccc1` [5 (62), BnOCO--D--His--Tyr(OBn)CONHCH2 CH2 SBn]: 1.5 µM. Consider `COC(=O)[C@H](COCc1ccccc1)NC(=O)[C@H](Cc1ccc(OCc2ccccc2)cc1)NC(=O)[C@@H](Cc1c[nH]cn1)NC(=O)OCc1ccccc1` [Example 8, N-[N-[N-[(Phenylmethoxy)carbonyl]-D-histidyl]-O-(phenylmethyl)-L-tyrosyl]-O-(phenylmethyl)-L-serine, methyl ester] (Cbz-[dH]-Tyr(Bn)-Ser(Bn)-OMe), for which the half-maximal inhibitory concentration (IC50) was 0.074 µM. Regarding `COC(=O)[C@H](COCc1ccccc1)NC(=O)[C@H](Cc1ccc(-c2ccccc2)cc1)NC(=O)[C@H](Cc1c[nH]cn1)NC(=O)OCc1ccccc1` [Example 16, N-[4-Phenyl-N-[N-[(phenylmethoxy)carbonyl]-L-histidyl]-L-phenylalanyl]-O-(phenylmethyl)-L-serine, methyl ester] (Cbz-His-[Bip]-Ser(Bn)-OMe), the IC50 came to 0.6 µM. Consider `CCNC(=O)[C@H](COCc1ccccc1)NC(=O)[C@H](Cc1ccc(OCc2ccccc2)cc1)NC(=O)[C@H](Cc1c[nH]cn1)NC(=O)OCc1ccccc1` [Example 11, N-Ethyl-Nα -[N-[N-[(phenylmethoxy)carbonyl]-L-histidyl]-O-(phenylmethyl)-L-tyrosyl]-O-(phenylmethyl)-L-serinamide] (Cbz-His-Tyr(Bn)-Ser(Bn)-NHEt), for which the IC50 came out at 0.17 µM. In the case of `CCOc1ccc(NC(=O)N[C@H](Cc2c[nH]cn2)C(=O)N[C@@H](Cc2ccc(OCc3ccccc3)cc2)C(=O)NCCOCc2ccccc2)cc1` [5 (61), (4-EtOPh)NHCO--D--His--Tyr(OBn)CONHCH2 CH2 OBn], the IC50 amounted to 7.2 µM.
